Laboratory results: patent publication EP4635500A1, “THERAPEUTIC AGENT FOR BACTERIAL INFECTION” (Sumitomo Pharma Co., Ltd., priority 2022, dated 2024)
Converted amounts (≈) assume the structure as drawn. Read-outs that look alike come from different tables or passages of the source.

Legend:
A. baumannii = assay: MIC, broth microdilution, CDC/FDA Antibiotic Resistance Isolate Bank (Example 7, Tables 9, 13, 14); assay type: cell-based, Acinetobacter baumannii; conditions: for MIC: read-out: MIC
Enterobacterales = assay: MIC, broth microdilution, CDC/FDA Antibiotic Resistance Isolate Bank (Example 7, Tables 8, 11, 12); assay type: cell-based; conditions: for MIC: read-out: MIC

What does the source list for `CO/N=C(\C(=O)N[C@@H]1C(=O)N2C(C(=O)[O-])=C(C[n+]3ccn4ncccc43)CS[C@H]12)c1nsc(N)n1` [Cefozopran, cefozopran]?
MIC (A. baumannii; Acinetobacter baumannii, A. baumannii KUB No. 5567, AR Bank #70, OXA-58, OXA-100): 2 µg/mL (≈ 3.88 µM); MIC (A. baumannii; Acinetobacter baumannii, A. baumannii KUB No. 5575, AR Bank #78, OXA-71): > 64 µg/mL; MIC (A. baumannii; Acinetobacter baumannii, A. baumannii KUB No. 5580, AR Bank #83, OXA-23, OXA-69, NDM-1): > 64 µg/mL; MIC (A. baumannii; Acinetobacter baumannii, A. baumannii KUB No. 5585, AR Bank #88, OXA-64, NDM-1): > 64 µg/mL; MIC (A. baumannii; Acinetobacter baumannii, A. baumannii KUB No. 5598, AR Bank #101, OXA-24, OXA-65): 32 µg/mL (≈ 62.1 µM); MIC (A. baumannii; Acinetobacter baumannii, A. baumannii KUB No. 5599, AR Bank #102, OXA-66): 8 µg/mL (≈ 15.5 µM); MIC (A. baumannii; Acinetobacter baumannii, A. baumannii KUB No. 5706, AR Bank #273, OXA-23, OXA-66): 64 µg/mL (≈ 124 µM); MIC (A. baumannii; Acinetobacter baumannii, A. baumannii KUB No. 5707, AR Bank #274, OXA-66, OXA-72): 16 µg/mL (≈ 31 µM); MIC (A. baumannii; Acinetobacter baumannii, A. baumannii KUB No. 5708, AR Bank #275, OXA-23, OXA-66): 64 µg/mL (≈ 124 µM); MIC (A. baumannii; Acinetobacter baumannii, A. baumannii KUB No. 5709, AR Bank #276, no carbapenemase genes (-)): > 64 µg/mL; MIC (A. baumannii; Acinetobacter baumannii, A. baumannii KUB No. 5710, AR Bank #277, OXA-24, OXA-65): 64 µg/mL (≈ 124 µM); MIC (A. baumannii; Acinetobacter baumannii, A. baumannii KUB No. 5711, AR Bank #278, OXA-23, OXA-66): 64 µg/mL (≈ 124 µM); MIC (A. baumannii; Acinetobacter baumannii, A. baumannii KUB No. 5712, AR Bank #279, OXA-23, OXA-66): 64 µg/mL (≈ 124 µM); MIC (A. baumannii; Acinetobacter baumannii, A. baumannii KUB No. 5713, AR Bank #280, OXA-66): 8 µg/mL (≈ 15.5 µM); MIC (A. baumannii; Acinetobacter baumannii, A. baumannii KUB No. 5714, AR Bank #281, OXA-82): 8 µg/mL (≈ 15.5 µM); MIC (A. baumannii; Acinetobacter baumannii, A. baumannii KUB No. 5715, AR Bank #282, OXA-23, OXA-66): 64 µg/mL (≈ 124 µM); MIC (A. baumannii; Acinetobacter baumannii, A. baumannii KUB No. 5716, AR Bank #283, OXA-23, OXA-66): 32 µg/mL (≈ 62.1 µM); MIC (A. baumannii; Acinetobacter baumannii, A. baumannii KUB No. 5717, AR Bank #284, OXA-24, OXA-65): 16 µg/mL (≈ 31 µM); MIC (A. baumannii; Acinetobacter baumannii, A. baumannii KUB No. 5718, AR Bank #285, OXA-24, OXA-65): 32 µg/mL (≈ 62.1 µM); MIC (A. baumannii; Acinetobacter baumannii, KUB No. 5719, AR Bank #286): 32 µg/mL (≈ 62.1 µM); MIC (A. baumannii; Acinetobacter baumannii, KUB No. 5720, AR Bank #287): 32 µg/mL (≈ 62.1 µM); MIC (A. baumannii; Acinetobacter baumannii, KUB No. 5721, AR Bank #288): 64 µg/mL (≈ 124 µM); MIC (A. baumannii; Acinetobacter baumannii, KUB No. 5722, AR Bank #259): 8 µg/mL (≈ 15.5 µM); MIC (A. baumannii; Acinetobacter baumannii, KUB No. 5723, AR Bank #290): > 64 µg/mL; MIC (A. baumannii; Acinetobacter baumannii, KUB No. 5724, AR Bank #291): 32 µg/mL (≈ 62.1 µM); MIC (A. baumannii; Acinetobacter baumannii, KUB No. 5725, AR Bank #292): 16 µg/mL (≈ 31 µM); MIC (A. baumannii; Acinetobacter baumannii, KUB No. 5726, AR Bank #293): 16 µg/mL (≈ 31 µM); MIC (A. baumannii; Acinetobacter baumannii, KUB No. 5727, AR Bank #294): > 64 µg/mL; MIC (A. baumannii; Acinetobacter baumannii, KUB No. 5728, AR Bank #295): 64 µg/mL (≈ 124 µM); MIC (A. baumannii; Acinetobacter baumannii, KUB No. 5729, AR Bank #296): > 64 µg/mL; MIC (A. baumannii; Acinetobacter baumannii, KUB No. 5730, AR Bank #297): 64 µg/mL (≈ 124 µM); MIC (A. baumannii; Acinetobacter baumannii, KUB No. 5731, AR Bank #298): 16 µg/mL (≈ 31 µM); MIC (A. baumannii; Acinetobacter baumannii, KUB No. 5732, AR Bank #299): > 64 µg/mL; MIC (A. baumannii; Acinetobacter baumannii, KUB No. 5733, AR Bank #300): 8 µg/mL (≈ 15.5 µM); MIC (A. baumannii; Acinetobacter baumannii, KUB No. 5734, AR Bank #301): > 64 µg/mL; MIC (A. baumannii; Acinetobacter baumannii, KUB No. 5735, AR Bank #302): > 64 µg/mL; MIC (A. baumannii; Acinetobacter baumannii, KUB No. 5736, AR Bank #303): 32 µg/mL (≈ 62.1 µM); MIC (A. baumannii; Acinetobacter baumannii, KUB No. 5737, AR Bank #304): 8 µg/mL (≈ 15.5 µM); MIC (A. baumannii; Acinetobacter baumannii, KUB No. 5738, AR Bank #305): 16 µg/mL (≈ 31 µM); MIC (A. baumannii; Acinetobacter baumannii, KUB No. 5739, AR Bank #306): 64 µg/mL (≈ 124 µM); MIC (A. baumannii; Acinetobacter baumannii, KUB No. 5740, AR Bank #307): 16 µg/mL (≈ 31 µM); MIC (A. baumannii; Acinetobacter baumannii, KUB No. 5741, AR Bank #308): 4 µg/mL (≈ 7.76 µM); MIC (A. baumannii; Acinetobacter baumannii, KUB No. 5742, AR Bank #309): 64 µg/mL (≈ 124 µM); MIC (A. baumannii; Acinetobacter baumannii, KUB No. 5743, AR Bank #310): 64 µg/mL (≈ 124 µM); MIC (A. baumannii; Acinetobacter baumannii, KUB No. 5744, AR Bank #311): > 64 µg/mL; MIC (A. baumannii; Acinetobacter baumannii, KUB No. 5745, AR Bank #312): 16 µg/mL (≈ 31 µM); MIC (A. baumannii; Acinetobacter baumannii, KUB No. 5746, AR Bank #313): 64 µg/mL (≈ 124 µM); MIC50 (A. baumannii; Acinetobacter baumannii, 55 isolates of A. baumannii, read-out: MIC50): 64 µg/mL (≈ 124 µM); MIC80 (A. baumannii; Acinetobacter baumannii, 55 isolates of A. baumannii, read-out: MIC80): > 64 µg/mL; MIC90 (A. baumannii; Acinetobacter baumannii, 55 isolates of A. baumannii, read-out: MIC90): > 64 µg/mL; Number of isolates at MIC >64 µg/mL (A. baumannii; MIC distribution, metallo-β-lactamase-producing A. baumannii, inhibitor µg/mL in parentheses): 4; MIC50 (Enterobacterales; 154 strains of Enterobacterales, read-out: MIC50): 64 µg/mL (≈ 124 µM); MIC80 (Enterobacterales; 154 strains of Enterobacterales, read-out: MIC80): > 64 µg/mL; MIC90 (Enterobacterales; 154 strains of Enterobacterales, read-out: MIC90): > 64 µg/mL; MIC (Enterobacterales; Citrobacter freundii, KUB No. 5654, AR Bank # 157): > 64 µg/mL; MIC (Enterobacterales; Enterobacter cloacae, Enterobacter cloacae KUB No. 5792, AR Bank #448): > 64 µg/mL; MIC (Enterobacterales; Enterobacter cloacae, Enterobacter cloacae KUB No. 5807, AR Bank #501): > 64 µg/mL; MIC (Enterobacterales; Enterobacter cloacae, Enterobacter cloacae KUB No. 5808, AR Bank #502): > 64 µg/mL; MIC (Enterobacterales; Enterobacter cloacae, Enterobacter cloacae complex, KUB No. 5661, AR Bank # 164): 1 µg/mL (≈ 1.94 µM); MIC (Enterobacterales; Enterobacter cloacae, Enterobacter cloacae group, KUB No. 5629, AR Bank # 132): 0.25 µg/mL (≈ 0.485 µM); MIC (Enterobacterales; Enterobacter cloacae, KUB No. 5529, AR Bank# 32): 4 µg/mL (≈ 7.76 µM); MIC (Enterobacterales; Enterobacter cloacae, KUB No. 5535, AR Bank# 38): > 64 µg/mL; MIC (Enterobacterales; Enterobacter cloacae, KUB No. 5547, AR Bank# 50): 8 µg/mL (≈ 15.5 µM); MIC (Enterobacterales; Enterobacter cloacae, KUB No. 5550, AR Bank# 53): > 64 µg/mL; MIC (Enterobacterales; Enterobacter cloacae, KUB No. 5557, AR Bank# 60): 2 µg/mL (≈ 3.88 µM); MIC (Enterobacterales; Enterobacter cloacae, KUB No. 5562, AR Bank # 65): 16 µg/mL (≈ 31 µM); MIC (Enterobacterales; Enterobacter cloacae, KUB No. 5569, AR Bank # 72): 16 µg/mL (≈ 31 µM); MIC (Enterobacterales; Enterobacter cloacae, KUB No. 5570, AR Bank # 73): 0.25 µg/mL (≈ 0.485 µM); MIC (Enterobacterales; Enterobacter cloacae, KUB No. 5590, AR Bank # 93): 32 µg/mL (≈ 62.1 µM); MIC (Enterobacterales; Enterobacter cloacae, KUB No. 5660, AR Bank # 163): > 64 µg/mL; MIC (Enterobacterales; Enterobacter cloacae, KUB No. 5761, AR Bank # 365): 16 µg/mL (≈ 31 µM); MIC (Enterobacterales; Enterobacter cloacae, KUB No. 5762, AR Bank # 366): 16 µg/mL (≈ 31 µM); MIC (Enterobacterales; Enterobacter cloacae, KUB No. 5763, AR Bank # 367): 4 µg/mL (≈ 7.76 µM); MIC (Enterobacterales; Enterobacter cloacae, KUB No. 5778, AR Bank # 432): > 64 µg/mL; MIC (Enterobacterales; Enterobacter cloaccae, KUB No. 5651, AR Bank # 154): > 64 µg/mL; MIC (Enterobacterales; Enterobacter clooreae, KUB No. 5633, AR Bank # 136): > 64 µg/mL; MIC (Enterobacterales; Escherichia coli, Escherichia coli KUB No. 5783, AR Bank #437): > 64 µg/mL; MIC (Enterobacterales; Escherichia coli, Escherichia coli KUB No. 5794, AR Bank #450): > 64 µg/mL; MIC (Enterobacterales; Escherichia coli, Escherichia coli KUB No. 5795, AR Bank #451): 64 µg/mL (≈ 124 µM); MIC (Enterobacterales; Escherichia coli, Escherichia coli KUB No. 5796, AR Bank #452): > 64 µg/mL; MIC (Enterobacterales; Escherichia coli, Escherichia coli KUB No. 5803, AR Bank #861): > 64 µg/mL; MIC (Enterobacterales; Escherichia coli, KUB No. 5558, AR Bank # 61): 16 µg/mL (≈ 31 µM); MIC (Enterobacterales; Escherichia coli, KUB No. 5564, AR Bank # 67): 0.25 µg/mL (≈ 0.485 µM); MIC (Enterobacterales; Escherichia coli, KUB No. 5566, AR Bank # 69): > 64 µg/mL; MIC (Enterobacterales; Escherichia coli, KUB No. 5574, AR Bank # 77): 0.06 µg/mL (≈ 0.116 µM); MIC (Enterobacterales; Escherichia coli, KUB No. 5578, AR Bank # 81): 0.5 µg/mL (≈ 0.97 µM); MIC (Enterobacterales; Escherichia coli, KUB No. 5581, AR Bank # 84): 0.25 µg/mL (≈ 0.485 µM); MIC (Enterobacterales; Escherichia coli, KUB No. 5582, AR Bank # 85): 8 µg/mL (≈ 15.5 µM); MIC (Enterobacterales; Escherichia coli, KUB No. 5583, AR Bank # 86): > 64 µg/mL; MIC (Enterobacterales; Escherichia coli, KUB No. 5586, AR Bank # 89): 0.5 µg/mL (≈ 0.97 µM); MIC (Enterobacterales; Escherichia coli, KUB No. 5601, AR Bank # 104): 32 µg/mL (≈ 62.1 µM); MIC (Enterobacterales; Escherichia coli, KUB No. 5611, AR Bank # 114): 16 µg/mL (≈ 31 µM); MIC (Enterobacterales; Escherichia coli, KUB No. 5615, AR Bank # 118): > 64 µg/mL; MIC (Enterobacterales; Escherichia coli, KUB No. 5616, AR Bank # 119): > 64 µg/mL; MIC (Enterobacterales; Escherichia coli, KUB No. 5625, AR Bank # 128): > 64 µg/mL; MIC (Enterobacterales; Escherichia coli, KUB No. 5634, AR Bank # 137): > 64 µg/mL; MIC (Enterobacterales; Escherichia coli, KUB No. 5646, AR Bank # 149): > 64 µg/mL; MIC (Enterobacterales; Escherichia coli, KUB No. 5647, AR Bank # 150): > 64 µg/mL; MIC (Enterobacterales; Escherichia coli, KUB No. 5648, AR Bank # 151): > 64 µg/mL; MIC (Enterobacterales; Escherichia coli, KUB No. 5659, AR Bank # 162): > 64 µg/mL; MIC (Enterobacterales; Escherichia coli, KUB No. 5764, AR Bank # 368): 0.06 µg/mL (≈ 0.116 µM); MIC (Enterobacterales; Escherichia coli, KUB No. 5765, AR Bank # 369): 32 µg/mL (≈ 62.1 µM); MIC (Enterobacterales; Escherichia coli, KUB No. 5766, AR Bank # 370): 64 µg/mL (≈ 124 µM)
